# Assay results reported in patent US4739050A, “2-phenyl-1,4-benzothiazin-3-one derivatives” (Santen Pharmaceutical Co., Ltd., priority 1985, dated 1988).
# Counter-ions that a name gives are not always drawn.
# Tested on: guinea-pig teania coli
# Assay: Pharmacological test I: calcium-antagonistic activity, inhibition of Ca++-induced contraction of isolated guinea-pig teania coli
# Details: Cavia porcellus, 5 min, Ca++-free-high-K Krebs, 5 min exposure before CaCl2 (3×10^-4 M), 32° C., read-out: Calcium-antagonistic activity IC50 (concentration eliciting 50% inhibition of Ca++-induced contraction)
# Description: The action potentials on the smooth muscles of uterus, teania coli and portal vein are dependent on calcium ion, and therefore these smooth muscle preparations are useful for screening of calcium antagonists. We measured the calcium-antagonistic activity of the compounds by the method using guinea-pig teania coli preparation.
# Isolated guinea-pig teania coli was suspended in a organ bath filled with Krebs solution at 32° C. and bubbled with 5% carbon dioxide in oxygen. After equilibration, the muscle was washed with Ca^++ -free Krebs solution, and when the muscle had relaxed to the basal level, it was suspended in Ca^++ -free-high-K Krebs solution.
# The muscle was exposed to test compounds for 5 minutes before addition of CaCl2, and the contraction induced by CaCl2 (3×10^-4 M) was recorded isotonically. The calcium-antagonistic activity was represented by the concentration of test compound which elicited 50% inhibition of Ca^++ -induced contraction (IC50).
row,SMILES,IC50 [nM]
1,"COc1ccc(OC)c(C2(CCCN(C)C3CCCCC3)Sc3ccccc3N(C)C2=O)c1 (centres unmarked) [compound 80, 3,4-Dihydro-2-(2,5-dimethoxyphenyl)-4-methyl-2-[3-(N-methylcyclohexylamino)propyl]-3-oxo-2H-1,4-benzothiazine oxalate]",710
2,"COc1ccc(OC)c(C2(CCCN(C)CCc3cc(OC)c(OC)c(OC)c3)Sc3ccccc3N(C)C2=O)c1 (centres unmarked) [compound 83, 3,4-Dihydro-2-(2,5-dimethoxyphenyl)-4-methyl-2-[3-(N-methyl-3,4,5-trimethoxyphenethylamino)propyl[-3-oxo-2H-1,4-benzothiazine oxalate]",860
3,"COc1ccc(CCN(C)CCCCOc2ccc(C3(SC)Sc4ccccc4N(C)C3=O)cc2)cc1OC (centres unmarked) [compound 103, 3,4-Dihydro-4-methyl-2-[4-[4-(N-methyl-3,4-dimethoxyphenethylamino)butoxy]phenyl]-2-methylthiol-3-oxo-2H-1,4l-benzothiazine hydrochloride]",530
4,"COc1ccc(OCCCN(C)CCc2ccc(OC)c(OC)c2)c(C2(SC)Sc3ccccc3N(C)C2=O)c1 (centres unmarked) [compound 131, 3,4-Dihydro-2-[5-methoxy-2-[3-(N-methyl-3,4-dimethoxyphenethylamino)propoxy]phenyl]-4-methyl-2-methylthio-3-oxo-2H-1,4-benzothiazine hydrochloride]",630
5,"COc1ccc(OCCCCN(C)CCc2cc(OC)c(OC)c(OC)c2)c(C2(SC)Sc3ccccc3N(C)C2=O)c1 (centres unmarked) [compound 142, 3,4-Dihydro-2-[5-methoxy-2-[4-(N-methyl-3,4,5-trimethoxyphenethylamino)butoxy]phenyl]-4-methyl-2-methylthio-3-oxo-2H-1,4-benzothiazine hydrochloride]",630
6,"COc1ccc(OCCCN(C)CCOc2ccc3c(c2)OCO3)c(C2(OC)Sc3ccccc3N(C)C2=O)c1 (centres unmarked) [compound 147, 3,4-Dihydro-2-methoxy-2-[5-methoxy-2-[3-[N-methyl-2-(3,4-methylenedioxyphenoxy)ethylamino]propoxy]phenyl]-4-methyl-3-oxo-2H-1,4-benzothiazine hydrochloride]",420
7,"COc1ccc(OCCCCN(C)CCOc2ccc3c(c2)OCO3)c(C2(OC)Sc3ccccc3N(C)C2=O)c1 (centres unmarked) [compound 148, 3,4-Dihydro-2-methoxy-2-[5-methoxy-2-[4-[N-methyl-2-(3,4-methylenedioxyphenoxy)ethylamino]butoxy]phenyl]-4-methyl-3-oxo-2H-1,4-benzothiazine hydrochloride]",380
8,"COc1ccc(OCCCCN(C)CCOc2ccc3c(c2)OCO3)c(C2(SC)Sc3ccccc3N(C)C2=O)c1 (centres unmarked) [compound 150, 3,4-Dihydro-2-[5-methoxy-2-[4-[N-methyl-2-(3,4-methylenedioxyphenoxy)ethylamino]butoxy]phenyl]-4-methyl-2-methylthio-3-oxo-2H-1,4-benzothiazine hydrochloride hemihydrate]",890
